# Values joined by “and” are separate entries in the source; they are usually repeats but may differ in a detail not shown here. Equal entries are not always repeated. Where two headings read alike, the source gives them in different places.
# Legend:
# [1] = tested on: Penicillum expansum (mould); details: cited from earlier work
# [2] = tested on: Pectinatus cervisiiphilus; details: 0.1 ppm of ClO2; contact time 5 min; cited from earlier work
# Pseudomonas aeruginosa = details: 1 ppm of ClO2; contact time 60 s; cited from earlier work
# Eschericia Coli = details: cited from earlier work
# Pediococcus Damnosus = details: cited from earlier work
# Mysidopsis bahia = assay: 96-hour bioassay of ClO2 treated side stream effluent, Independent Bioassay Laboratory A, mysid shrimp; assay type: in vivo; details: end of 96-hour test period; ClO2 treated side stream effluent grabs Sep. 3, 2001 12:00, 18:00, 24:00, Sep. 4, 2001 06:00
# Text: Mysidopsis bahia (Mysids) and Menidia beryllina (Silversides) were subjected to ClO2 treated effluent in these tests. Adequate volumes of chemical were brought to the site to conduct a dosing of the side stream for a 24-hour period. During this period, 2 gallons of treated water were taken at 6-hour intervals, preserved on ice and shipped to an independent bioassay laboratory (designated Independent Bioassay Laboratory A).
# Table 3(c) illustrates the survivability of the organisms at the 96-hour end-point in the test for each of the 4 samples taken (samples indicated by date and time each sample was taken.).
# Lactobacillus Brevis = details: contact time 300 s, cited from earlier work
# [3] = tested on: Saccharomyces diastaticus (yeast); details: cited from earlier work
# Mysid shrimp = assay: In-house mysid shrimp acute bioassay of treated effluent; details: for surviving Mysid shrimp DAY 1 (bowls A, B) / surviving Mysid shrimp DAY 2 (bowls A, B) / surviving Mysid shrimp DAY 3 (bowls A, B) / surviving Mysid shrimp DAY 4 (bowls A, B): 10 initial per bowl, set up Aug. 20, 2002
# M. bahia = assay: Bioassay of ClO2 treated WWTP 2 effluent by Laboratory 4, mysid shrimp; assay type: in vivo, Mysidopsis bahia; details: grabs Aug. 28, 2002 10:15, 16:00, 22:00, Aug. 29, 2002 09:30
# Text: With the success of the above bioassay series that began on Aug. 20, 2002, it was concluded that a third party test was needed to verify research data. Water grabs from the Anastasia Island Treatment Facility, taken on Aug. 28, 2002, were delivered to Laboratory 4, an independent bioassay laboratory. Additional testing of the water sent to Laboratory 4 labs was also forwarded to another contract lab to document the water quality during the sample periods for the bioassays. It should be noted here that the plant was operating under their normal operating conditions and accepting both landfill leachate as well as septic tank and portable toilet waste. These were however pumped into a storage tank and then trickled into the influent stream at the headworks.
# The complete toxicological study as reference is included as attachment at the end of this study.
# With the successful bioassay conducted by the Laboratory 4 labs, a second series of water samples was taken for the repeat bioassay. These samples were taken on Sep. 11, 2002 and forwarded to Laboratory 4 labs on Sep. 12, 2002 to conduct the bioassay. The results of this test for both the water quality toxicity and the bioassay are illustrated in the Tables 13, 14 and 15.
# The complete toxicological results are provided at the end of this study as attachments.
# Silversides = assay: In-house silverside bioassay of ClO2 treated effluent; assay type: in vivo, Menidia beryllina; details: numerous in-house tests, WWTP 1
# Streptococcus = details: 1 ppm of ClO2; contact time 15 s; cited from earlier work
# Staphylococcus aureus = details: 1 ppm of ClO2; contact time 60 s; cited from earlier work
substance,measurement,setting,value
Chlorine dioxide [ClO2],Inactivation in %,"[1]; 0.5 ppm of ClO2, contact time 60 min",99.99%
same,Inactivation in %,"[1]; 2 ppm of ClO2, contact time 20 min",99.999%
same,Inactivation in %,[2],99.9%
same,Inactivation in %,Pseudomonas aeruginosa,>99.999%
same,Inactivation in %,"Eschericia Coli; 0.15 ppm of ClO2, contact time 300 s",99.9%
same,Inactivation in %,"Eschericia Coli; 0.25 ppm of ClO2, contact time 60 s",>99.999%
same,Inactivation in %,"Pediococcus Damnosus; 0.15 ppm of ClO2, contact time 20 min",99.99%
same,Inactivation in %,"Pediococcus Damnosus; 0.3 ppm of ClO2, contact time 5 min",99.99%
same,Inactivation in %,"Pediococcus Damnosus; 1 ppm of ClO2, contact time 5 min",99.999%
same,Percent Survival Mysid bahia,Mysidopsis bahia,0%
same,Inactivation in %,Lactobacillus Brevis; 0.15 ppm of ClO2,99.9%
same,Inactivation in %,Lactobacillus Brevis; 1 ppm of ClO2,>99.999%
same,Inactivation in %,"[3]; 0.15 ppm of ClO2, contact time 10 min",99.9%
same,Inactivation in %,"[3]; 0.5 ppm of ClO2, contact time 10 min",>99.999%
same,Inactivation in %,"[3]; 1 ppm of ClO2, contact time 1 min",>99.999%
same,survival rate of Mysid Shrimp 24 HR,"Mysid shrimp; 0.64 PPM DOSE, 25% solution",100
same,survival rate of Mysid Shrimp 48 HR,"Mysid shrimp; 0.64 PPM DOSE, 25% solution",100
same,survival rate of Mysid Shrimp 72 HR,"Mysid shrimp; 0.64 PPM DOSE, 25% solution",90
same,survival rate of Mysid Shrimp 96 HR,"Mysid shrimp; 0.64 PPM DOSE, 25% solution",90
same,"surviving Mysid shrimp DAY 1 (bowls A, B)","Mysid shrimp; 0.64 PPM DOSE, 25% solution",10
same,"surviving Mysid shrimp DAY 2 (bowls A, B)","Mysid shrimp; 0.64 PPM DOSE, 25% solution",10
same,"surviving Mysid shrimp DAY 3 (bowls A, B)","Mysid shrimp; 0.64 PPM DOSE, 25% solution",9
same,"surviving Mysid shrimp DAY 4 (bowls A, B)","Mysid shrimp; 0.64 PPM DOSE, 25% solution",9
same,survival rate of Mysid Shrimp 24 HR,"Mysid shrimp; 0.64 PPM DOSE, 50% solution",100
same,survival rate of Mysid Shrimp 48 HR,"Mysid shrimp; 0.64 PPM DOSE, 50% solution",100
same,survival rate of Mysid Shrimp 72 HR,"Mysid shrimp; 0.64 PPM DOSE, 50% solution",100
same,survival rate of Mysid Shrimp 96 HR,"Mysid shrimp; 0.64 PPM DOSE, 50% solution",100
same,"surviving Mysid shrimp DAY 1 (bowls A, B)","Mysid shrimp; 0.64 PPM DOSE, 50% solution",10
same,"surviving Mysid shrimp DAY 2 (bowls A, B)","Mysid shrimp; 0.64 PPM DOSE, 50% solution",10
same,"surviving Mysid shrimp DAY 3 (bowls A, B)","Mysid shrimp; 0.64 PPM DOSE, 50% solution",10
same,"surviving Mysid shrimp DAY 4 (bowls A, B)","Mysid shrimp; 0.64 PPM DOSE, 50% solution",10
same,survival rate of Mysid Shrimp 24 HR,"Mysid shrimp; 0.64 PPM DOSE, 75% solution",100
same,survival rate of Mysid Shrimp 48 HR,"Mysid shrimp; 0.64 PPM DOSE, 75% solution",100
same,survival rate of Mysid Shrimp 72 HR,"Mysid shrimp; 0.64 PPM DOSE, 75% solution",95
same,survival rate of Mysid Shrimp 96 HR,"Mysid shrimp; 0.64 PPM DOSE, 75% solution",90
same,"surviving Mysid shrimp DAY 1 (bowls A, B)","Mysid shrimp; 0.64 PPM DOSE, 75% solution",10
same,"surviving Mysid shrimp DAY 2 (bowls A, B)","Mysid shrimp; 0.64 PPM DOSE, 75% solution",10
same,"surviving Mysid shrimp DAY 3 (bowls A, B)","Mysid shrimp; 0.64 PPM DOSE, 75% solution",9 and 10
same,"surviving Mysid shrimp DAY 4 (bowls A, B)","Mysid shrimp; 0.64 PPM DOSE, 75% solution",8 and 10
same,survival rate of Mysid Shrimp 24 HR,"Mysid shrimp; 0.64 PPM DOSE, 100% solution",100
same,survival rate of Mysid Shrimp 48 HR,"Mysid shrimp; 0.64 PPM DOSE, 100% solution",100
same,survival rate of Mysid Shrimp 72 HR,"Mysid shrimp; 0.64 PPM DOSE, 100% solution",85
same,survival rate of Mysid Shrimp 96 HR,"Mysid shrimp; 0.64 PPM DOSE, 100% solution",70
same,"surviving Mysid shrimp DAY 1 (bowls A, B)","Mysid shrimp; 0.64 PPM DOSE, 100% solution",10
same,"surviving Mysid shrimp DAY 2 (bowls A, B)","Mysid shrimp; 0.64 PPM DOSE, 100% solution",10
same,"surviving Mysid shrimp DAY 3 (bowls A, B)","Mysid shrimp; 0.64 PPM DOSE, 100% solution",7 and 10
same,"surviving Mysid shrimp DAY 4 (bowls A, B)","Mysid shrimp; 0.64 PPM DOSE, 100% solution",5 and 9
same,survival rate of Mysid Shrimp 24 HR,"Mysid shrimp; 1.05 PPM DOSE, 25% solution",100
same,survival rate of Mysid Shrimp 48 HR,"Mysid shrimp; 1.05 PPM DOSE, 25% solution",100
same,survival rate of Mysid Shrimp 72 HR,"Mysid shrimp; 1.05 PPM DOSE, 25% solution",100
same,survival rate of Mysid Shrimp 96 HR,"Mysid shrimp; 1.05 PPM DOSE, 25% solution",100
same,"surviving Mysid shrimp DAY 1 (bowls A, B)","Mysid shrimp; 1.05 PPM DOSE, 25% solution",10
same,"surviving Mysid shrimp DAY 2 (bowls A, B)","Mysid shrimp; 1.05 PPM DOSE, 25% solution",10
same,"surviving Mysid shrimp DAY 3 (bowls A, B)","Mysid shrimp; 1.05 PPM DOSE, 25% solution",10
same,"surviving Mysid shrimp DAY 4 (bowls A, B)","Mysid shrimp; 1.05 PPM DOSE, 25% solution",10
same,survival rate of Mysid Shrimp 24 HR,"Mysid shrimp; 1.05 PPM DOSE, 50% solution",100
same,survival rate of Mysid Shrimp 48 HR,"Mysid shrimp; 1.05 PPM DOSE, 50% solution",100
same,survival rate of Mysid Shrimp 72 HR,"Mysid shrimp; 1.05 PPM DOSE, 50% solution",95
same,survival rate of Mysid Shrimp 96 HR,"Mysid shrimp; 1.05 PPM DOSE, 50% solution",95
same,"surviving Mysid shrimp DAY 1 (bowls A, B)","Mysid shrimp; 1.05 PPM DOSE, 50% solution",10
same,"surviving Mysid shrimp DAY 2 (bowls A, B)","Mysid shrimp; 1.05 PPM DOSE, 50% solution",10
same,"surviving Mysid shrimp DAY 3 (bowls A, B)","Mysid shrimp; 1.05 PPM DOSE, 50% solution",10 and 9
same,"surviving Mysid shrimp DAY 4 (bowls A, B)","Mysid shrimp; 1.05 PPM DOSE, 50% solution",9 and 10
same,survival rate of Mysid Shrimp 24 HR,"Mysid shrimp; 1.05 PPM DOSE, 75% solution",100
same,survival rate of Mysid Shrimp 48 HR,"Mysid shrimp; 1.05 PPM DOSE, 75% solution",100
same,survival rate of Mysid Shrimp 72 HR,"Mysid shrimp; 1.05 PPM DOSE, 75% solution",100
same,survival rate of Mysid Shrimp 96 HR,"Mysid shrimp; 1.05 PPM DOSE, 75% solution",95
same,"surviving Mysid shrimp DAY 1 (bowls A, B)","Mysid shrimp; 1.05 PPM DOSE, 75% solution",10
same,"surviving Mysid shrimp DAY 2 (bowls A, B)","Mysid shrimp; 1.05 PPM DOSE, 75% solution",10
same,"surviving Mysid shrimp DAY 3 (bowls A, B)","Mysid shrimp; 1.05 PPM DOSE, 75% solution",10
same,"surviving Mysid shrimp DAY 4 (bowls A, B)","Mysid shrimp; 1.05 PPM DOSE, 75% solution",10 and 9
same,survival rate of Mysid Shrimp 24 HR,"Mysid shrimp; 1.05 PPM DOSE, 100% solution",100
same,survival rate of Mysid Shrimp 48 HR,"Mysid shrimp; 1.05 PPM DOSE, 100% solution",100
same,survival rate of Mysid Shrimp 72 HR,"Mysid shrimp; 1.05 PPM DOSE, 100% solution",90
same,survival rate of Mysid Shrimp 96 HR,"Mysid shrimp; 1.05 PPM DOSE, 100% solution",70
same,"surviving Mysid shrimp DAY 1 (bowls A, B)","Mysid shrimp; 1.05 PPM DOSE, 100% solution",10
same,"surviving Mysid shrimp DAY 2 (bowls A, B)","Mysid shrimp; 1.05 PPM DOSE, 100% solution",10 and 9
same,"surviving Mysid shrimp DAY 3 (bowls A, B)","Mysid shrimp; 1.05 PPM DOSE, 100% solution",8 and 10
same,"surviving Mysid shrimp DAY 4 (bowls A, B)","Mysid shrimp; 1.05 PPM DOSE, 100% solution",6 and 8
same,No. of surviving shrimp DAY 2,"Mysid shrimp; 100% effluent, 10 shrimp per bowl, set up Aug. 13, 2002, ClO2 samples 14:00 and 15:00, bowls A, B, landfill leachate slug in plant",10 and 9 and 6
same,AVG (% survival of bowls A and B),"Mysid shrimp; 100% effluent, set up Aug. 13, 2002, ClO2 samples 14:00 and 15:00",40%
same,mysid shrimp bioassay outcome,"Mysid shrimp; side stream, after adjustments to the chlorine dioxide generator (weaker hypochlorite solution)",successful (acceptable end-point survival)
same,Sample survival % of M. bahia,M. bahia; 6.25 % Effluent,100%
same,Sample survival % of M. bahia,M. bahia; 12.5 % Effluent,95% and 100%
same,Sample survival % of M. bahia,M. bahia; 25 % Effluent,100%
same,Sample survival % of M. bahia,M. bahia; 50 % Effluent,95% and 100%
same,Sample survival % of M. bahia,M. bahia; 100 % Effluent,100%
same,survival of Silversides post CLO2 dosing,Silversides,always survived
same,Inactivation in %,Streptococcus,>99.999%
same,Inactivation in %,Staphylococcus aureus,99.999%
